Test results reported in PubChem BioAssay (NCI).
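Each compound was tested at five concentrations against cells in 96-well plates for 48 hours. The concentration for full growth arrest is given as TGI.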

What was measured:
Assay in all cases: NCI-60 cell line screen, 48 h
HCT-116 colon = tested on: HCT-116 colon
TK-10 renal = tested on: TK-10 renal
OVCAR-4 ovarian = tested on: OVCAR-4 ovarian
UACC-257 melanoma = tested on: UACC-257 melanoma
M14 melanoma = tested on: M14 melanoma
DU-145 prostate = tested on: DU-145 prostate
HCC-2998 colon = tested on: HCC-2998 colon
K-562 leukemia = tested on: K-562 leukemia
MDA-MB-435 = tested on: MDA-MB-435
COLO 205 colon = tested on: COLO 205 colon
HOP-62 NSCLC = tested on: HOP-62 NSCLC
PC-3 prostate = tested on: PC-3 prostate
NCI-H522 lung = tested on: NCI-H522 lung
KM12 colon = tested on: KM12 colon
UO-31 renal = tested on: UO-31 renal
ACHN renal = tested on: ACHN renal
SF-295 CNS = tested on: SF-295 CNS
CCRF-CEM leukemia = tested on: CCRF-CEM leukemia
HT29 colon = tested on: HT29 colon
BT-549 breast = tested on: BT-549 breast
MDA-MB-231 breast = tested on: MDA-MB-231 breast
HL-60(TB) leukemia = tested on: HL-60(TB) leukemia
IGROV1 ovarian = tested on: IGROV1 ovarian
A498 renal = tested on: A498 renal
RXF 393 renal = tested on: RXF 393 renal
SK-OV-3 ovarian = tested on: SK-OV-3 ovarian
HOP-92 NSCLC = tested on: HOP-92 NSCLC
NCI-H23 lung = tested on: NCI-H23 lung
SW-620 colon = tested on: SW-620 colon
SK-MEL-2 melanoma = tested on: SK-MEL-2 melanoma
MDA-N = tested on: MDA-N
OVCAR-5 ovarian = tested on: OVCAR-5 ovarian
CAKI-1 renal = tested on: CAKI-1 renal
SNB-19 CNS = tested on: SNB-19 CNS
EKVX NSCLC = tested on: EKVX NSCLC
SK-MEL-5 melanoma = tested on: SK-MEL-5 melanoma
T-47D breast = tested on: T-47D breast
MALME-3M melanoma = tested on: MALME-3M melanoma
SN12C renal = tested on: SN12C renal
LOX IMVI melanoma = tested on: LOX IMVI melanoma
A549 NSCLC = tested on: A549 NSCLC
UACC-62 melanoma = tested on: UACC-62 melanoma
SK-MEL-28 melanoma = tested on: SK-MEL-28 melanoma
NCI/ADR-RES ovarian = tested on: NCI/ADR-RES ovarian
NCI-H460 lung = tested on: NCI-H460 lung
OVCAR-3 ovarian = tested on: OVCAR-3 ovarian
NCI-H226 lung = tested on: NCI-H226 lung
RPMI-8226 leukemia = tested on: RPMI-8226 leukemia
OVCAR-8 ovarian = tested on: OVCAR-8 ovarian
SF-539 CNS = tested on: SF-539 CNS
HCT-15 colon = tested on: HCT-15 colon
U251 CNS = tested on: U251 CNS
MCF7 breast = tested on: MCF7 breast
SF-268 CNS = tested on: SF-268 CNS
MOLT-4 leukemia = tested on: MOLT-4 leukemia
786-0 renal = tested on: 786-0 renal
HS 578T breast = tested on: HS 578T breast
SR leukemia = tested on: SR leukemia

**Q.** How did the TGI (HCT-116 colon) turn out when `N=c1ccc2c(c1)[nH]c1c3ccccc3[nH]c3cccc2c31` was run?
**A.** 2800 nM

**Q.** What about the TGI (TK-10 renal) of the same compound?
**A.** 3.62 µM

**Q.** What about the TGI (OVCAR-4 ovarian) of the same compound?
**A.** 3.23 µM

**Q.** What about the TGI (UACC-257 melanoma) of the same compound?
**A.** 3.52 µM

**Q.** What about the TGI (M14 melanoma) of the same compound?
**A.** 3.65 µM

**Q.** And the TGI (DU-145 prostate)?
**A.** 2950 nM

**Q.** And the TGI (HCC-2998 colon)?
**A.** 2440 nM

**Q.** And the TGI (K-562 leukemia)?
**A.** > 100 µM

**Q.** And the TGI (MDA-MB-435)?
**A.** 3.2 µM

**Q.** And the TGI (COLO 205 colon)?
**A.** 2.67 µM

**Q.** And the TGI (HOP-62 NSCLC)?
**A.** 2580 nM

**Q.** And the TGI (PC-3 prostate)?
**A.** 2970 nM

**Q.** And the TGI (NCI-H522 lung)?
**A.** 3.06 µM

**Q.** And the TGI (KM12 colon)?
**A.** 2600 nM

**Q.** What about the TGI (UO-31 renal) of the same compound?
**A.** 3.14 µM

**Q.** What about the TGI (ACHN renal) of the same compound?
**A.** 2740 nM

**Q.** And the TGI (SF-295 CNS)?
**A.** 2610 nM

**Q.** And the TGI (CCRF-CEM leukemia)?
**A.** > 100 µM

**Q.** What about the TGI (HT29 colon) of the same compound?
**A.** 2.47 µM

**Q.** What about the TGI (BT-549 breast) of the same compound?
**A.** 13.1 µM

**Q.** And the TGI (MDA-MB-231 breast)?
**A.** 2690 nM

**Q.** And the TGI (HL-60(TB) leukemia)?
**A.** > 100 µM

**Q.** What about the TGI (IGROV1 ovarian) of the same compound?
**A.** 2670 nM

**Q.** And the TGI (A498 renal)?
**A.** 3.2 µM

**Q.** And the TGI (RXF 393 renal)?
**A.** 3.09 µM

**Q.** What about the TGI (SK-OV-3 ovarian) of the same compound?
**A.** 3000 nM

**Q.** And the TGI (HOP-92 NSCLC)?
**A.** 3.22 µM

**Q.** And the TGI (NCI-H23 lung)?
**A.** 2940 nM

**Q.** What about the TGI (SW-620 colon) of the same compound?
**A.** 2020 nM

**Q.** What about the TGI (SK-MEL-2 melanoma) of the same compound?
**A.** 3.14 µM

**Q.** What about the TGI (MDA-N) of the same compound?
**A.** 2760 nM

**Q.** And the TGI (OVCAR-5 ovarian)?
**A.** 3.16 µM

**Q.** And the TGI (CAKI-1 renal)?
**A.** 3.02 µM

**Q.** What about the TGI (SNB-19 CNS) of the same compound?
**A.** 3000 nM

**Q.** And the TGI (EKVX NSCLC)?
**A.** 3.1 µM

**Q.** And the TGI (SK-MEL-5 melanoma)?
**A.** 3.17 µM

**Q.** With `OCCN(CCO)c1ccc2c(c1)Cc1ccccc1-2` as the compound, how does the TGI (T-47D breast) read?
**A.** 57.8 µM

**Q.** What about the TGI (HCT-116 colon) of the same compound?
**A.** > 100000 nM

**Q.** And the TGI (MALME-3M melanoma)?
**A.** > 100 µM

**Q.** What about the TGI (SN12C renal) of the same compound?
**A.** > 100 µM

**Q.** And the TGI (TK-10 renal)?
**A.** 55 µM

**Q.** What about the TGI (OVCAR-4 ovarian) of the same compound?
**A.** > 100 µM

**Q.** What about the TGI (UACC-257 melanoma) of the same compound?
**A.** 96.7 µM

**Q.** What about the TGI (LOX IMVI melanoma) of the same compound?
**A.** > 100 µM

**Q.** And the TGI (M14 melanoma)?
**A.** > 100 µM

**Q.** And the TGI (DU-145 prostate)?
**A.** > 100000 nM

**Q.** And the TGI (HCC-2998 colon)?
**A.** > 100000 nM

**Q.** What about the TGI (K-562 leukemia) of the same compound?
**A.** > 100 µM

**Q.** What about the TGI (A549 NSCLC) of the same compound?
**A.** > 100 µM

**Q.** What about the TGI (MDA-MB-435) of the same compound?
**A.** > 100 µM

**Q.** What about the TGI (COLO 205 colon) of the same compound?
**A.** 35.7 µM

**Q.** And the TGI (UACC-62 melanoma)?
**A.** > 100 µM

**Q.** What about the TGI (HOP-62 NSCLC) of the same compound?
**A.** > 100000 nM

**Q.** And the TGI (SK-MEL-28 melanoma)?
**A.** > 100 µM

**Q.** And the TGI (PC-3 prostate)?
**A.** > 100000 nM

**Q.** And the TGI (KM12 colon)?
**A.** > 100000 nM

**Q.** And the TGI (UO-31 renal)?
**A.** > 100 µM

**Q.** And the TGI (ACHN renal)?
**A.** > 100000 nM

**Q.** And the TGI (SF-295 CNS)?
**A.** > 100000 nM

**Q.** And the TGI (NCI/ADR-RES ovarian)?
**A.** > 100 µM

**Q.** What about the TGI (CCRF-CEM leukemia) of the same compound?
**A.** > 100 µM

**Q.** And the TGI (HT29 colon)?
**A.** 37.8 µM

**Q.** What about the TGI (NCI-H460 lung) of the same compound?
**A.** 50 µM

**Q.** And the TGI (MDA-MB-231 breast)?
**A.** > 100000 nM

**Q.** And the TGI (HL-60(TB) leukemia)?
**A.** > 100 µM

**Q.** And the TGI (OVCAR-3 ovarian)?
**A.** 45.9 µM

**Q.** And the TGI (A498 renal)?
**A.** 80.5 µM

**Q.** And the TGI (SK-OV-3 ovarian)?
**A.** > 100000 nM

**Q.** What about the TGI (HOP-92 NSCLC) of the same compound?
**A.** 73.1 µM

**Q.** What about the TGI (NCI-H226 lung) of the same compound?
**A.** > 100 µM

**Q.** What about the TGI (RPMI-8226 leukemia) of the same compound?
**A.** > 100 µM

**Q.** And the TGI (NCI-H23 lung)?
**A.** > 100000 nM

**Q.** What about the TGI (OVCAR-8 ovarian) of the same compound?
**A.** > 100 µM

**Q.** And the TGI (SF-539 CNS)?
**A.** > 100 µM

**Q.** What about the TGI (HCT-15 colon) of the same compound?
**A.** > 100 µM

**Q.** And the TGI (U251 CNS)?
**A.** > 100 µM

**Q.** What about the TGI (SW-620 colon) of the same compound?
**A.** > 100000 nM

**Q.** What about the TGI (MCF7 breast) of the same compound?
**A.** 60.5 µM

**Q.** And the TGI (SK-MEL-2 melanoma)?
**A.** 63.2 µM

**Q.** And the TGI (MDA-N)?
**A.** > 100000 nM

**Q.** And the TGI (OVCAR-5 ovarian)?
**A.** > 100 µM

**Q.** And the TGI (SF-268 CNS)?
**A.** > 100 µM

**Q.** What about the TGI (MOLT-4 leukemia) of the same compound?
**A.** > 100 µM

**Q.** And the TGI (CAKI-1 renal)?
**A.** 32 µM

**Q.** And the TGI (SNB-19 CNS)?
**A.** > 100000 nM

**Q.** What about the TGI (786-0 renal) of the same compound?
**A.** > 100 µM

**Q.** What about the TGI (EKVX NSCLC) of the same compound?
**A.** > 100 µM

**Q.** What about the TGI (HS 578T breast) of the same compound?
**A.** > 100 µM

**Q.** And the TGI (SK-MEL-5 melanoma)?
**A.** > 100 µM

**Q.** What about the TGI (SR leukemia) of the same compound?
**A.** > 100 µM
